Experimental data reported in patent US20250018014A1, “METHOD FOR TREATING AND/OR PREVENTING REGNASE-1-RELATED DISEASE” (OSAKA UNIVERSITY, priority 2018, published 2025).
Like-named read-outs stand apart in the source and are kept apart here. Residues, ends and D or L forms follow the SMILES beside them.

Tests used:
Assay type in all cases: biochemical
[1] = biological target: T1, Reg1_301-599 (amino acids 301-599 of human Regnase-1) phosphorylation by TBK1 (Homo sapiens, UniProt Q5D1E8); assay: Regnase-1 phosphorylation inhibition by compounds (AlphaScreen), TBK1, C-terminal Regnase-1; conditions: Table 13, read-out: Phosphorylation inhibition Reg1_301-599, 50% inhibition concentration (TBK1)
T1 construct: made in house; host or cells: Expi293 cells
T1 sequence (Q5D1E8 301-599): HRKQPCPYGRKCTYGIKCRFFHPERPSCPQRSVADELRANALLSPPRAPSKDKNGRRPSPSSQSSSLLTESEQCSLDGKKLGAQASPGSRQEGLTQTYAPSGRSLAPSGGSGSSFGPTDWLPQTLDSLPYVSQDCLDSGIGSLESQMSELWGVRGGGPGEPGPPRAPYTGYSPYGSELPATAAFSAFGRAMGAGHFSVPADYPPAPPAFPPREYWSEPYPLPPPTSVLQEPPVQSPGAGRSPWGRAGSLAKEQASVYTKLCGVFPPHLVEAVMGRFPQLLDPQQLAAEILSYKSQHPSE
Description: (§1) Among the full-length human Regnase-1 sequence, the 1st to 546th amino acid sequence was prepared and made into a construct having a FLAG tag on the N-terminal side and a biotin ligase BirA recognition sequence on the C-terminal side (herein, a Regnase-1 lacking the C-terminal domain of Regnase-1 (amino acids 547 to 599 in the case of SEQ ID NO: 2) is referred to as “ΔCTD_Reg1”. “ΔCTD_Reg1” is different from “Regnase-1ΔCTD”, which is a C-terminal domain deletion variant resulting from a frameshift mutation caused by a 1 bp deletion at codon 517, as prepared in Example 13). In addition, the sequence from amino acids 301 to 599 of the full-length human Regnase-1 sequence was designated as C-terminal Regnase-1, and a construct having a FLAG tag on the N-terminal side and a recognition sequence for biotin ligase BirA on the C-terminal side was prepared (Reg1_301-599). The above-mentioned Regnase-1 was expressed in mammalian Expi293 cells, purified with FLAG M2 agarose, and isolated by gel filtration chromatography. When biotinylation was required, methods of nonpatent documents (BMC biotechnology, 2008,8,41; and Protein Science, 1999,8,921-929) were used.
(§2) Using Kinase assay buffer III (manufactured by SignalChem) supplemented with 2 mM DTT, 100 μM sodium vanadate, and 2 mM manganese chloride, kinase (IKKβ (manufactured by SignalChem) or TBK1 (manufactured by SignalChem)) and Regnase-1 were reacted in the presence of 10 μM ATP at room temperature for 2 hours to perform a phosphorylation reaction.
(§3) Phosphorylated Regnase-1 was detected by the AlphaScreen system. After each of the above-mentioned phosphorylated Regnase-1 antibodies was added and reacted at room temperature for one hour, anti-FLAG AlphaLISA Acceptor Beads (manufactured by PerkinElmer) and Protein A AlphaScreen Donor Beads (manufactured by PerkinElmer) were added, and EnVision (manufactured by PerkinElmer) was used to measure the excited luminescence. As a result, phosphorylated Regnase-1 produced by the phosphorylation reaction by kinase was specifically detected, and signals were confirmed to be enhanced in a manner dependent on Regnase-1 and kinase concentrations (FIG. 24).
(§4) After mixing 2 nM of the above-mentioned Regnase-1 and the compound, phosphorylated Regnase-1 produced by the phosphorylation reaction was detected by the AlphaScreen system. As the results, the inhibition rate was calculated from the signals obtained when adding the compound at each concentration, by defining the signal obtained with Regnase-1 alone to be 100% inhibition rate, and the signal obtained when the same amount of solvent (DMSO) is added in place of the compound as 0% inhibition rate. The 50% inhibition concentration (μM) was calculated from the obtained dose response curve (Table 11).

[2] = biological target: T2, ΔCTD_Reg1 (amino acids 1 to 546 of human Regnase-1) phosphorylation by TBK1 (Homo sapiens, UniProt Q5D1E8); assay: Regnase-1 phosphorylation inhibition by compounds (AlphaScreen), TBK1, CTD-deficient Regnase-1
T2 construct: made in house; host or cells: Expi293 cells
T2 sequence (Q5D1E8 1-546): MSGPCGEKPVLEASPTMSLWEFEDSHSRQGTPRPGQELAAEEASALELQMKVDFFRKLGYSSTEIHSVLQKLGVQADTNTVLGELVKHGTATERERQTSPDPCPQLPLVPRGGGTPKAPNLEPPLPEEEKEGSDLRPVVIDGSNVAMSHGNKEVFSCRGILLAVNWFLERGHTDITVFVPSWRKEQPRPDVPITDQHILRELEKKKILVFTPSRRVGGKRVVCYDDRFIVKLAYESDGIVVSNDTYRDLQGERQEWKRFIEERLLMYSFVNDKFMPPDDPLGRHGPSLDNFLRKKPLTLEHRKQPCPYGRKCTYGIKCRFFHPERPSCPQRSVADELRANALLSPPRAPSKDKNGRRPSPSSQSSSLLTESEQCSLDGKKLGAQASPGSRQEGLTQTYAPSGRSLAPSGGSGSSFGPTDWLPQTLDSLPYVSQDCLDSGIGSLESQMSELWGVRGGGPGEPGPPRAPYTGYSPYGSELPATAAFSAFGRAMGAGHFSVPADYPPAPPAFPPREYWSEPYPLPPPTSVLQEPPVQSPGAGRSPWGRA
Description: (§5) The full-length sequence of human Regnase-1 (UniProt ID: Q5D1E8) was used to prepare a construct having a FLAG tag on the N-terminal side and a recognition sequence for biotin ligase BirA on the C-terminal side (FL_Reg1) as a target protein. The above-mentioned Regnase-1 was expressed in mammalian Expi293 cells, purified with FLAG M2 agarose, and isolated by gel filtration chromatography. When biotinylation was required, methods from nonpatent documents (BMC biotechnology, 2008,8,41; and Protein Science, 1999,8,921-929) were used.
as §1, §2, §3, §4

[3] = biological target: T3, Reg1_301-599 (amino acids 301-599 of human Regnase-1) phosphorylation by IKKβ (Homo sapiens, UniProt Q5D1E8); assay: Regnase-1 phosphorylation inhibition by compounds (AlphaScreen), IKKβ, C-terminal Regnase-1; conditions: Table 14, read-out: Phosphorylation inhibition Reg1_301-599, 50% inhibition concentration (IKKβ)
T3 construct: made in house; host or cells: Expi293 cells
T3 sequence (Q5D1E8 301-599): T1 sequence (Q5D1E8 301-599)
Description: as §5, §1, §2, §3, §4

[4] = Table 13, phosphorylation by TBK1, read-out: Phosphorylation inhibition ΔCTD_Reg1, 50% inhibition concentration (TBK1)
[5] = Table 11, 2 nM Regnase-1, AlphaScreen, read-out: 50% inhibition concentration, Regnase-1 phosphorylation, ΔCTD_Reg1, TBK1

`CC[C@H](C)[C@@H]1NC(=O)[C@H](CCCCN)NC(=O)[C@H](Cc2ccc(O)cc2)NC(=O)[C@H](Cc2ccccc2)NC(=O)[C@H](C(C)C)NC(=O)[C@H](C)N(C)C(=O)C[C@@H](C(=O)N2CCCC2)NC(=O)[C@H](Cc2c[nH]c3ccccc23)NC(=O)[C@H](CC(N)=O)NC(=O)[C@H](Cc2ccc(O)cc2)NC(=O)[C@H](Cc2c[nH]c3ccccc23)NC1=O` [PP19] (HELM PEPTIDE1{[meA].V.F.Y.K.I.W.Y.N.W.D.[C1CCN([*:1])C1]}$PEPTIDE1,PEPTIDE1,1:R1-11:R3$$$V2.0) showed an IC50 [1] of 5.8 µM and an IC50 [2, 4] of 4.6 µM.
With `CC[C@H](C)[C@@H]1NC(=O)[C@H](CC(=O)O)NC(=O)[C@H](C)N(C)C(=O)C[C@@H](C(=O)N2CCCC2)NC(=O)[C@H](Cc2c[nH]c3ccccc23)NC(=O)[C@H](CC(=O)O)NC(=O)[C@H](Cc2c[nH]c3ccccc23)NC(=O)[C@H](Cc2ccc(O)cc2)NC(=O)[C@H](CC(=O)O)NC(=O)[C@H](Cc2ccccc2)NC(=O)[C@H](Cc2c[nH]c3ccccc23)NC1=O` [PP17] (HELM PEPTIDE1{[meA].D.I.W.F.D.Y.W.D.W.D.[C1CCN([*:1])C1]}$PEPTIDE1,PEPTIDE1,1:R1-11:R3$$$V2.0) the IC50 [1] was < 0.06 µM and the IC50 [2, 4] was 0.3 µM.
`CC[C@H](C)[C@@H]1NC(=O)[C@H](CCCCN)NC(=O)[C@H](Cc2ccccc2)NC(=O)[C@H](Cc2c[nH]c3ccccc23)NC(=O)[C@H](CO)NC(=O)[C@H](CO)NC(=O)[C@H](CC(N)=O)NC(=O)[C@@H]2CCCN2C(=O)[C@@H](C)N(C)C(=O)C[C@@H](C(=O)N2CCCC2)NC(=O)[C@H](Cc2c[nH]c3ccccc23)NC1=O` [PP6] (HELM PEPTIDE1{[C[C@H](C(=O)[*:2])N(C)[*:1]].P.N.S.S.W.F.K.I.W.D.[C1CCN([*:1])C1]}$PEPTIDE1,PEPTIDE1,1:R1-11:R3$$$V2.0) was tested, and the IC50 [2, 5] was 14.5 µM.
`CC[C@H](C)[C@@H]1NC(=O)[C@H](CCCCN)NC(=O)[C@H](Cc2ccc(O)cc2)NC(=O)[C@H](Cc2c[nH]c3ccccc23)NC(=O)[C@H](CO)NC(=O)[C@H](CC(N)=O)NC(=O)[C@H](C)N(C)C(=O)C[C@@H](C(=O)N2CCCC2)NC(=O)[C@H](CC(C)C)NC(=O)CNC(=O)[C@H](Cc2c[nH]c3ccccc23)NC1=O` [PP21] (HELM PEPTIDE1{[meA].N.S.W.Y.K.I.W.G.L.D.[C1CCN([*:1])C1]}$PEPTIDE1,PEPTIDE1,1:R1-11:R3$$$V2.0) was tested, and the IC50 [1] was 17 µM.
For `CC[C@H](C)[C@@H]1NC(=O)[C@H](CC(N)=O)NC(=O)[C@H](Cc2ccc(O)cc2)NC(=O)[C@H](Cc2c[nH]c3ccccc23)NC(=O)[C@H](CO)NC(=O)[C@H](CC(N)=O)NC(=O)[C@H](C)NC(=O)[C@H](Cc2ccc(O)cc2)NC(=O)CNC(=O)[C@H](C)N(C)C(=O)C[C@@H](C(=O)N2CCCC2)NC(=O)[C@H](Cc2c[nH]c3ccccc23)NC1=O` [PP2] (HELM PEPTIDE1{[meA].G.Y.A.N.S.W.Y.N.I.W.D.[C1CCN([*:1])C1]}$PEPTIDE1,PEPTIDE1,1:R1-12:R3$$$V2.0), the IC50 [2, 5] was 17.6 µM.
`CC[C@H](C)[C@@H]1NC(=O)[C@H](CC(N)=O)NC(=O)[C@H](Cc2ccc(O)cc2)NC(=O)[C@H](Cc2c[nH]c3ccccc23)NC(=O)[C@H](C)NC(=O)[C@H](CC(N)=O)NC(=O)[C@H](CO)NC(=O)[C@H](Cc2c[nH]cn2)NC(=O)[C@H](C)N(C)C(=O)C[C@@H](C(=O)N2CCCC2)NC(=O)[C@H](Cc2c[nH]c3ccccc23)NC1=O` [PP5] (HELM PEPTIDE1{[meA].H.S.N.A.W.Y.N.I.W.D.[C1CCN([*:1])C1]}$PEPTIDE1,PEPTIDE1,1:R1-11:R3$$$V2.0) was tested, and the IC50 [2, 5] was 19.1 µM.
For `CC[C@H](C)[C@@H]1NC(=O)[C@H](CCCNC(=N)N)NC(=O)[C@H](Cc2ccc(O)cc2)NC(=O)[C@H](Cc2c[nH]c3ccccc23)NC(=O)[C@H](CO)NC(=O)[C@H](CC(N)=O)NC(=O)[C@H](C)N(C)C(=O)C[C@@H](C(=O)N2CCCC2)NC(=O)[C@H](CC(C)C)NC(=O)CNC(=O)[C@H](Cc2c[nH]c3ccccc23)NC1=O` [PP22] (HELM PEPTIDE1{[meA].N.S.W.Y.R.I.W.G.L.D.[C1CCN([*:1])C1]}$PEPTIDE1,PEPTIDE1,1:R1-11:R3$$$V2.0), the IC50 [3] was 31 µM.
With `CC[C@H](C)[C@@H]1NC(=O)[C@H](CCCCN)NC(=O)[C@H](Cc2ccc(O)cc2)NC(=O)[C@H](Cc2c[nH]c3ccccc23)NC(=O)[C@H](CO)NC(=O)[C@H](CO)NC(=O)[C@H]([C@@H](C)O)NC(=O)[C@@H]2CCCN2C(=O)[C@@H](C)N(C)C(=O)C[C@@H](C(=O)N2CCCC2)NC(=O)[C@H](Cc2c[nH]c3ccccc23)NC1=O` [PP23] (HELM PEPTIDE1{[C[C@H](C(=O)[*:2])N(C)[*:1]].P.T.S.S.W.Y.K.I.W.D.[C1CCN([*:1])C1]}$PEPTIDE1,PEPTIDE1,1:R1-11:R3$$$V2.0) the IC50 [3] was > 62.1 µM.
`CC[C@H](C)[C@@H]1NC(=O)[C@H](Cc2ccc(O)cc2)NC(=O)[C@H](C)N(C)C(=O)C[C@@H](C(=O)N2CCCC2)NC(=O)[C@H](CC(C)C)NC(=O)[C@H](CC(=O)O)NC(=O)CNC(=O)[C@H](Cc2ccccc2)NC(=O)[C@H](Cc2ccccc2)NC(=O)[C@H](CC(=O)O)NC(=O)[C@H](Cc2c[nH]c3ccccc23)NC1=O` [PP4] (HELM PEPTIDE1{[meA].Y.I.W.D.F.F.G.D.L.D.[C1CCN([*:1])C1]}$PEPTIDE1,PEPTIDE1,1:R1-11:R3$$$V2.0) showed an IC50 [2, 5] of 44.9 µM.
With `CC[C@H](C)[C@@H]1NC(=O)[C@H](CC(N)=O)NC(=O)[C@H](Cc2ccc(O)cc2)NC(=O)[C@H](Cc2c[nH]c3ccccc23)NC(=O)[C@H](CO)NC(=O)[C@H](CC(N)=O)NC(=O)[C@H](CO)NC(=O)[C@H](Cc2ccccc2)NC(=O)[C@H](CC(N)=O)NC(=O)[C@H](C)N(C)C(=O)C[C@@H](C(=O)N2CCCC2)NC(=O)[C@H](Cc2c[nH]c3ccccc23)NC1=O` [PP16] (HELM PEPTIDE1{[meA].N.F.S.N.S.W.Y.N.I.W.D.[C1CCN([*:1])C1]}$PEPTIDE1,PEPTIDE1,1:R1-12:R3$$$V2.0) the IC50 [1] was > 62.1 µM.
